Reference: patent publication US8030498B2, “Benzoylpyrazole compounds and herbicides containing them” (Ishihara Sangyo Kaisha, Ltd., priority 2005, dated 2011)

How the values were obtained:
wheat = test: Test Example 2: soil application on the day after sowing, growth inhibition rate, wheat; type: in vivo, Triticum spp.; settings: 250 g/ha active ingredient, observed on 19th to 24th day
Method in brief: (§1)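 Upland soil pots sown with crop and weed seeds; next day wettable powder or emulsifiable concentrate at prescribed active-ingredient amounts, diluted to 500 L/ha water, sprayed onto soil. Growth inhibition scored visually 19–24 days later, 0 (as untreated) to 100% (complete kill).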

velvetleaf = test: Test Example 2: soil application on the day after sowing, growth inhibition rate, velvetleaf; type: in vivo, Abutilon theophrasti MEDIC.; settings: 250 g/ha active ingredient, observed on 19th to 24th day
Method in brief: as §1

barnyardgrass = test: Test Example 2: soil application on the day after sowing, growth inhibition rate, barnyardgrass; type: in vivo, Echinochloa crus-galli L.; settings: 250 g/ha active ingredient, observed on 19th to 24th day
Method in brief: as §1

rice = test: Test Example 2: soil application on the day after sowing, growth inhibition rate, rice; type: in vivo, Oryza sativa L.; settings: 250 g/ha active ingredient, observed on 19th to 24th day
Method in brief: as §1

rice (Oryza sativa L.) = test: Test Example 1: foliar treatment, growth inhibition rate, rice; type: in vivo; settings: 31 g/ha active ingredient, visually observed 17th to 23rd day after application
Method in brief: (§2)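 Potted upland soil; compounds as wettable powders or emulsifiable concentrates diluted in water at 500 L/ha plus 0.1 vol % spreader, foliar-sprayed at defined leaf stages (rice 1.0–2.5, wheat 1.7–3.4, corn 2.0–3.5, greenfoxtail 1.0–3.0). Growth inhibition (0–100%) scored visually 17–23 days after application.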

wheat (Triticum spp.) = test: Test Example 1: foliar treatment, growth inhibition rate, wheat; type: in vivo; settings: 31 g/ha active ingredient, visually observed 17th to 23rd day after application
Method in brief: as §2

corn (Zea mays L.) = test: Test Example 1: foliar treatment, growth inhibition rate, corn; type: in vivo; settings: 31 g/ha active ingredient, visually observed 17th to 23rd day after application
Method in brief: as §2

[1] = tested on: velvetleaf (Abutilon theophrasti MEDIC.); test: Test Example 1: foliar treatment, growth inhibition rate, velvetleaf; type: in vivo; settings: 31 g/ha active ingredient, visually observed 17th to 23rd day after application
Method in brief: (§3)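 Visual scoring of growth inhibition, 0% (untreated) to 100% (complete kill), on days 17–23 following post-emergence spray of formulated compound in water (500 L/ha, 0.1 vol % spreader); plants treated at set leaf stages, e.g. corn 2.0–3.5, wheat 1.7–3.4.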

[2] = tested on: barnyardgrass (Echinochloa crus-galli L.); test: Test Example 1: foliar treatment, growth inhibition rate, barnyardgrass; type: in vivo; settings: 31 g/ha active ingredient, visually observed 17th to 23rd day after application
Method in brief: as §3

crabgrass = test: Test Example 2: soil application on the day after sowing, growth inhibition rate, crabgrass; type: in vivo, Digitaria sanguinalis L.; settings: 250 g/ha active ingredient, observed on 19th to 24th day
Method in brief: as §1

greenfoxtail = test: Test Example 2: soil application on the day after sowing, growth inhibition rate, greenfoxtail; type: in vivo, Setaria viridis L.; settings: 250 g/ha active ingredient, observed on 19th to 24th day
Method in brief: as §1

[3] = tested on: redroot pigweed (Amaranthus retroflexus L.); test: Test Example 1: foliar treatment, growth inhibition rate, redroot pigweed; type: in vivo; settings: 31 g/ha active ingredient, visually observed 17th to 23rd day after application
Method in brief: as §3

[4] = tested on: soybean (Glycine max Merr.); test: Test Example 1: foliar treatment, growth inhibition rate, soybean; type: in vivo; settings: 31 g/ha active ingredient, visually observed 17th to 23rd day after application
Method in brief: as §3

[5] = tested on: crabgrass (Digitaria sanguinalis L.); test: Test Example 1: foliar treatment, growth inhibition rate, crabgrass; type: in vivo; settings: 31 g/ha active ingredient, visually observed 17th to 23rd day after application
Method in brief: as §3

redroot pigweed = test: Test Example 2: soil application on the day after sowing, growth inhibition rate, redroot pigweed; type: in vivo, Amaranthus retroflexus L.; settings: 250 g/ha active ingredient, observed on 19th to 24th day
Method in brief: as §1

corn = test: Test Example 2: soil application on the day after sowing, growth inhibition rate, corn; type: in vivo, Zea mays L.; settings: 250 g/ha active ingredient, observed on 19th to 24th day
Method in brief: as §1

prickly sida = test: Test Example 2: soil application on the day after sowing, growth inhibition rate, prickly sida; type: in vivo, Sida spinosa L.; settings: 250 g/ha active ingredient, observed on 19th to 24th day
Method in brief: as §1

[6] = tested on: greenfoxtail (Setaria viridis L.); test: Test Example 1: foliar treatment, growth inhibition rate, greenfoxtail; type: in vivo; settings: 31 g/ha active ingredient, visually observed 17th to 23rd day after application
Method in brief: as §2

[7] = tested on: prickly sida (Sida spinosa L.); test: Test Example 1: foliar treatment, growth inhibition rate, prickly sida; type: in vivo; settings: 31 g/ha active ingredient, visually observed 17th to 23rd day after application
Method in brief: as §3

soybean = test: Test Example 2: soil application on the day after sowing, growth inhibition rate, soybean; type: in vivo, Glycine max Merr.; settings: 250 g/ha active ingredient, observed on 19th to 24th day
Method in brief: as §1

SMILES	Growth inhibition rate (%) Wheat (wheat)	Growth inhibition rate (%) Velvetleaf (velvetleaf)	Growth inhibition rate (%) Barnyardgrass (barnyardgrass)	Growth inhibition rate (%) Rice (rice)	Growth inhibition rate (%) Rice (rice (Oryza sativa L.))	Growth inhibition rate (%) Wheat (wheat (Triticum spp.))	Growth inhibition rate (%) Corn (corn (Zea mays L.))	Growth inhibition rate (%) Velvetleaf [1]	Growth inhibition rate (%) Barnyardgrass [2]	Growth inhibition rate (%) Crabgrass (crabgrass)	Growth inhibition rate (%) Greenfoxtail (greenfoxtail)	Growth inhibition rate (%) redroot pigweed [3]	Growth inhibition rate (%) Soybean [4]	Growth inhibition rate (%) Crabgrass [5]	Growth inhibition rate (%) redroot pigweed (redroot pigweed)	Growth inhibition rate (%) Corn (corn)	Growth inhibition rate (%) Prickly sida (prickly sida)	Growth inhibition rate (%) Greenfoxtail [6]	Growth inhibition rate (%) Prickly sida [7]	Growth inhibition rate (%) Soybean (soybean)
CCOC(=O)COc1c(S(C)(=O)=O)ccc(C(=O)c2cnn(C)c2OC(=O)SCC)c1C [compound 65]	0%	0%	0%	0%	0%	0%	0%	50%	20%	10%	10%	30%	10%	10%	20%	0%	0%	10%	30%	0%
CCCOc1c(S(C)(=O)=O)ccc(C(=O)c2cnn(C)c2OC(=O)SCC)c1C [compound 66]	0%	40%	80%	90%	60%	10%	0%	95%	95%	90%	40%	95%	98%	98%	95%	0%	90%	100%	75%	0%
CCCOc1c(S(C)(=O)=O)ccc(C(=O)c2cnn(CC)c2OC(=O)SCC)c1C [compound 67]	0%	60%	60%	60%	60%	10%	10%	90%	95%	70%	40%	95%	90%	98%	50%	0%	70%	100%	60%	20%
CCSC(=O)Oc1c(C(=O)c2ccc(C(F)(F)F)cc2S(C)(=O)=O)cnn1CC [compound 68]	0%	100%	100%	100%	60%	0%	10%	80%	95%	60%	30%	75%	70%	40%	98%	0%	95%	60%	70%	40%
CCSC(=O)Oc1c(C(=O)c2ccc(S(C)(=O)=O)c(COCC(F)(F)F)c2Cl)cnn1C [compound 70]	0%	70%	70%	40%	70%	0%	30%	80%	100%	80%	50%	100%	80%	100%	100%	0%	65%	100%	70%	0%
CCSC(=O)Oc1c(C(=O)c2ccc(S(C)(=O)=O)c(OCCSC)c2C)cnn1C [compound 81]	0%	0%	0%	0%	10%	0%	10%	0%	30%	0%	10%	10%	50%	0%	0%	0%	0%	0%	0%	0%
CCSC(=O)Oc1c(C(=O)c2ccc(S(C)(=O)=O)c(C#N)c2C)cnn1C [compound 82]	0%	20%	30%	10%	40%	0%	0%	70%	70%	70%	20%	60%	70%	40%	50%	0%	80%	60%	50%	0%
CCSC(=O)Oc1c(C(=O)c2ccc(S(C)(=O)=O)c(CC#N)c2C)cnn1C [compound 83]	0%	40%	80%	50%	80%	0%	0%	95%	100%	95%	40%	80%	95%	100%	90%	0%	70%	100%	70%	0%
